Experimental data reported in patent US10221439B2, “Sensors, methods and kits for detecting nicotinamide adenine dinucleotides” (Max-Planck-Gesellschaft zur Förderung der Wissenschaften …, priority 2015, dated 2019).
Entries after “also recorded” stand apart in the source; their conditions may differ.

What was measured:
Wild-type human SPR = Wild-type human SPR (Homo sapiens, UniProt P35270); details: cited from earlier work
U2OS cells = experiment: Live cells perfusion experiment with sensor expressed in the cytosol; type: cell-based; details: for sensor response (ratio TMR/SiR, NADPH/NADP^+): 100 μM perfused on U2OS cells
Description: Semi-stable U2OS (SPR-Halo-p30-SNAP cloned in a pEBTet vector; see Bach et al. FEBS J. 2007 Feb.; 274(3):783-90 for the description of pEBTet) freshly trypsinated are diluted 5-fold with DMEM GlutaMax+10% FBS and 1 μg/mL puromycin. They are plated (2 mL) in previously sterilized and poly-L-ornithine coated (1 h incubation) glass coverslips (20×20 mm, VWR) in 12-well plate (TPP). On day 2, the expression is induced by 100 ng/mL doxycycline for ˜24 h. […] On day 4, the cells are washed 3 times with DMEM GlutaMax+10% FBS without phenol red (10 min incubation, 37° C., 5% CO2 between each step). After 30 min of incubation, the cells are ready for imaging. Glass coverslips with labelled U2OS cells were transferred to a Cytoo chamber (44×34×10 mm). Gravity fed perfusion of the chamber was performed at a flow rate of 1 mL/min. Time-course experiments of sensor imaging were performed using a Leica LAS AF 7000 wide-field microscope equipped with a 63× plan Apochromat 1.40 NA oil immersion objective lens. A xenon arc lamp was used for imaging of the U2OS cells. For each frame, the two channels (donor and FRET) were measured consecutively with an interval of 10 s between the two emission channels. The filter set Cy3/Cy5 was used for FRET ratio imaging with excitation at 530/35 and emission at 580/40 (Cy3) as well as excitation at 635/30 and emission at 700/72 (Cy5). If not indicated otherwise, the image size was […]. The reagent perfused during the experiment (H2O2, SPY) were dissolved in HBSS (Lonza). HBSS solution was continuously perfused during the other time point of the experiment.

[1] = cited from earlier work

Sequence of Wild-type human SPR (P35270 whole entry, the tested form may be a part): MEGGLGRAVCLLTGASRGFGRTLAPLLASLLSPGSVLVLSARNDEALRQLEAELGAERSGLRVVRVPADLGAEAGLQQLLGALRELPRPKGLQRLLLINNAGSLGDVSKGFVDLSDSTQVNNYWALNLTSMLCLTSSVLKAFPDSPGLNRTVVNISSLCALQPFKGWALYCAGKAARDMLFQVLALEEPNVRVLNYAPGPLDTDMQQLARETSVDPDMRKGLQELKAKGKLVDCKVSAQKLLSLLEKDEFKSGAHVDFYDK

Compound: nicotinamide adenine dinucleotide phosphate [NADP^+]
- Kd (Wild-type human SPR): 10 µM

Compound: nicotinamide adenine dinucleotide phosphate [NADPH]
- Kd (Wild-type human SPR): 1 µM

Compound: Nc1ccc(S(=O)(=O)Nc2ccccn2)cc1 [sulfapyridine]
- sensor response (ratio TMR/SiR) (U2OS cells; 2 mM perfused on U2OS cells): increased ratio TMR/SiR; also recorded: fully open the sensor
- pKa of the sulfonamide proton [1]: 8.4

Compound: OO [H2O2, hydrogen peroxide]
- sensor response (ratio TMR/SiR, NADPH/NADP^+) (U2OS cells): decreased NADPH/NADP^+ ratio
- sensor response (ratio TMR/SiR, NADPH/NADP^+) (U2OS cells; listed as hydrogen peroxide): sharp decrease of the ratio
